{"source": "patent US10752901B2", "about": "“Inhibition of ferrochelatase as an antiangiogenic therapy” (Indiana University Research and Technology Corporation, priority 2015, dated 2020)", "key": {"[1]": {"tested_on": "choroidal neovascularization", "test": "L-CNV model (laser-induced choroidal neovascularization)", "type": "in vivo, mouse", "conditions": "L-CNV mice"}, "HRECs [2]": {"tested_on": "HRECs", "test": "Cell proliferation assay (alamarBlue), HRECs", "type": "cell-based, human", "procedure": "Proliferation of cells was monitored as described in Basavarajappa et al., PLoS One 9 (2014). Briefly, after FECH knockdown 2,500 cells in 100 μL of growth medium were plated in each well of 96-well clear-bottom black plates and incubated for 24 hours. Then, compound/DMSO vehicle (final DMSO concentration of 1%) were added and the plates were incubated for 44 hours in 100 μL media at 37° C. and 5% CO2. Then, 11.1 μL of alamarBlue reagent was added to each well of the plate and 4 hours later fluorescence readings were taken at excitation and emission wavelengths of 560 nm and 590 nm respectively using a Synergy H1 plate reader (BioTek, Winooski, Vt., USA). The concentration ranges of griseofulvin and NMPP used were 0.5 nM-500 μM and 0.1 nM-100 μM respectively."}, "[3]": {"test": "Oral griseofulvin systemic effects (mouse and liver weights)", "type": "in vivo", "conditions": "oral feeding", "procedure": "Mice were fed griseofulvin for a total of 3 weeks, with chow changed every 2-3 days. Standard mouse chow (5 g/mouse/day) was mixed in water (2.2 mL H2O/gram chow), soaked for 15 minutes, then mashed. Griseofulvin doses were prepared at 0.0% (control), 0.5%, and 1.0% with 0.0 g, 0.5 g, and 1.0 g griseofulvin: 10 mL corn oil: 100 g mouse chow ratio, respectively. […] The corn oil solutions and mouse chow mixture were manually mixed thoroughly for 10 minutes. During treatment, the mice were examined and weighed 3 times/week (FIG. 1A). On Day 8, mice underwent L-CNV as above, and were imaged by OCT at Day 15 and Day 22, at which time they were euthanized. The eyes were enucleated and flatmounts prepared as above. The livers were dissected out and weighed (FIG. 1B)."}, "HRECs [4]": {"tested_on": "HRECs", "test": "Scratch-wound migration assay", "type": "cell-based, human", "procedure": "The migration of HRECs was monitored as described in Basavarajappa et al., PLoS One 9, e95694 (2014). Briefly, HRECs were grown until confluency in 6-well plates and then serum starved overnight in EBM-2 medium. Then, using a sterile 10 μL tip, a scratch was introduced in each well and fresh EGM-2 medium containing DMSO or different concentrations of compounds was added to the wells. For knockdown experiments, the scratch was introduced 48 hours after transfection and fresh medium was added to the wells. Photographs of the wells were taken at different time points to measure the number of migrated cells into the scratched area."}, "[5]": {"conditions": "antifungal treatment of humans; cited from earlier work"}, "HRECs [6]": {"tested_on": "HRECs", "test": "In vitro Matrigel tube formation assay", "type": "cell-based, human", "procedure": "The ability of HRECs to form tubes in vitro was monitored as described in Basavarajappa et al., J Med Chem 58, pp. 5015-5027 (2015). Briefly, HRECs were treated with the indicated concentrations of compounds or DMSO or siRNAs for 48 hours and then 15,000 HRECs in 100 μL of EGM-2 medium containing siRNAs, DMSO or compounds were added to each well of a 96-well plate that was pre-coated with 50 μL of Matrigel basement membrane. Photographs of each well at different time points were taken to measure the tube formation using the Angiogenesis Analyzer plugin in ImageJ software (v.1.48)."}, "mouse choroid-sclera": {"tested_on": "mouse choroid-sclera", "test": "Choroidal sprouting assay", "type": "cell-based", "conditions": "ex vivo, 48 hours with compound", "procedure": "To assess choroidal sprouting, pieces of choroid-sclera dissected from euthanized mouse eyes were embedded in Matrigel and grown in EGM-2 medium plus antibiotics for 72 hours to allow sprouting to initiate. The indicated concentrations of griseofulvin (in DMSO, final DMSO concentration 1%) were added and growth allowed to proceed for 48 hours. Images were taken and growth quantified by measuring distance from the edge of the choroidal piece to the growth front in 4 directions per sample."}, "FECH": {"target": "T1, FECH (Homo sapiens, UniProt P22830)", "T1 construct": "host or cells: HRECs (human retinal endothelial cells)", "T1 sequence (P22830 55-423)": "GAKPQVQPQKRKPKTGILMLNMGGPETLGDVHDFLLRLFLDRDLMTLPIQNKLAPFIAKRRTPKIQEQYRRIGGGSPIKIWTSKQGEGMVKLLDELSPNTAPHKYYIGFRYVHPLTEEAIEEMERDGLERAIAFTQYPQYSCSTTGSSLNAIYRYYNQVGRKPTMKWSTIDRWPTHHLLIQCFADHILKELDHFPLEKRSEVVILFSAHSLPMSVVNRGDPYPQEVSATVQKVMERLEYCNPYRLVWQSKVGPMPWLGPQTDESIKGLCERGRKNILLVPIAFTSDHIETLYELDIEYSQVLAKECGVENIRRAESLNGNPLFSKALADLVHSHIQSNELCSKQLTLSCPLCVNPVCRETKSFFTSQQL", "test": "PPIX build-up assay", "type": "cell-based", "conditions": "HRECs, 5-ALA induced", "procedure": "HRECs were grown in a 6-well plate until confluent. Then, cells were serum starved overnight in EBM-2 medium. Fresh EGM-2 medium containing DMSO or compounds was added to cells, and they were incubated at 37° C. for 1 hour followed by addition of 1 mM 5-ALA to increase flux through the heme biosynthetic pathway. After 3 hours of incubation in the dark at 37° C., the cells were trypsinized and lysed in buffer containing 25 mM HEPES-NaOH pH 7.4, 150 mM NaCl, 1% NP-40, 10% glycerol and 1 mM PMSF. The cell lysates were incubated in the dark at 4° C. for 20 minutes on a shaker and centrifuged at 12000×g for 15 minutes. Supernatants were collected for analysis. In a 384-well black plate, 20 μL of supernatant was mixed with 20 μL of 1:1 solution of 2 M perchloric acid and methanol. After 5 minutes of incubation, fluorescence readings were taken at excitation and emission wavelengths of 407 nm and 610 nm using the Synergy plate reader."}, "endothelial cells": {"tested_on": "endothelial cells", "test": "Anti-proliferative activity of cremastranone", "type": "cell-based, human", "conditions": "endothelial versus non-endothelial cells"}, "ferrochelatase": {"target": "T2, ferrochelatase (Sus scrofa, UniProt F1S1X4)", "T2 construct": "from tissue; host or cells: porcine brain lysate (S2 and S3 supernatants)", "T2 sequence (F1S1X4 1-433)": "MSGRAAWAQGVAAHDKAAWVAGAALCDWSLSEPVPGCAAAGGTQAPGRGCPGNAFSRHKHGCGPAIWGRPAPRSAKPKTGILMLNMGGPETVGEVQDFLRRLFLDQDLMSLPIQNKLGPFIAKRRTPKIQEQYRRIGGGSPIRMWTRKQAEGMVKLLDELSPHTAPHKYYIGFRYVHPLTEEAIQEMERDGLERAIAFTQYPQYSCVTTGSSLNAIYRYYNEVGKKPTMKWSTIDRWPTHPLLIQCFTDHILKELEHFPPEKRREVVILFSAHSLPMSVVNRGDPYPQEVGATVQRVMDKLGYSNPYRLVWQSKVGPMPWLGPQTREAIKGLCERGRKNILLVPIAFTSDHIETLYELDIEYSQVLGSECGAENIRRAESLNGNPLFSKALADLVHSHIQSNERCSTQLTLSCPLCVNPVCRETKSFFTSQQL", "test": "Photoaffinity pull down from porcine brain lysate", "type": "binding", "conditions": "competition with excess (1 mM) cremastranone isomer; immunoblot band intensity", "procedure": "Synthesis and characterization of affinity reagents 2 and 3 are shown in WO2014182695A1, filed May 6, 2014, and incorporated by reference to the extent it is consistent herewith. Compounds 1 and 4 were synthesized as described in Lee et al., Org Biomol Chem 28, p. 28 (2014); Basavarajappa et al., PLoS One 9, e95694 (2014). For pulldowns, Neutravidin agarose beads (1 mL of 50% slurry) were washed three times in buffer A containing 25 mM Tris-HCl pH 7.4, 150 mM NaCl, 2.5 mM sodium pyrophosphate, 1 mM phenylmethylsulfonyl fluoride (PMSF), 0.1 mM sodium orthovanadate, 10 μg/mL aprotinin and 10 μg/mL leupeptin. The beads were then incubated with 100 μM affinity or control reagents 2 or 3 overnight at 4° C. with rotation. […]\nThe beads were collected by centrifugation at 500×g for 5 minutes, then resuspended in 1 mL of buffer B and irradiated with 365 nm UV light (Mercury bulb H44GS100 from Sylvania in a Black-Ray 100 A long-wave UV lamp) in a 60 mm Petri dish for 30 minutes at 4° C. […] The eluates were then analyzed in 4-20% gradient SDS-PAGE and the protein bands were visualized using silver staining. The protein bands pulled down specifically by photo-affinity reagent were excised from the silver stained SDS-PAGE gel and analyzed by mass spectrometry (IUSM Proteomics Core). […]"}}, "data": [{"compound": "COC1=CC(=O)C[C@@H](C)[C@]12Oc1c(Cl)c(OC)cc(OC)c1C2=O", "note": "[griseofulvin]", "values": [{"measurement": "neovascularization", "setting": "[1]; feeding 0.5% and 1% in chow", "value": "decreased neovascularization"}, {"measurement": "neovascularization", "setting": "[1]; single intravitreal injection 50 μM, 100 μM", "value": "dose-dependent results"}, {"measurement": "proliferation of HRECs", "setting": "HRECs [2]", "value": "dose-dependent antiproliferative effects"}, {"measurement": "concentration of griseofulvin needed to have effects", "setting": "HRECs [2]; HRECs in vitro (proliferation, migration, tube formation)", "value": "~10", "unit": "µM"}, {"measurement": "liver weights", "setting": "[3]", "value": "increased"}, {"measurement": "mouse weights", "setting": "[3]; experimental timecourse", "value": "did not significantly change"}, {"measurement": "migration of HRECs", "setting": "HRECs [4]", "value": "inhibition of migration"}, {"measurement": "concentration attained in plasma", "setting": "[5]", "value": "1 to 2", "unit": "µg/mL"}, {"measurement": "tube formation ability of HRECs", "setting": "HRECs [6]", "value": "inhibition of tube formation"}, {"measurement": "formation of microvascular sprouts", "setting": "mouse choroid-sclera", "value": "inhibited formation of microvascular sprouts"}]}, {"compound": "COc1ccc(CC2COc3cc(O)c(OC)c(O)c3C2=O)cc1O", "note": "(centres unmarked) [cremastranone]", "values": [{"measurement": "rescue of antiproliferative effects by excess 5-ALA", "setting": "HRECs [2]; HRECs, addition of 5-aminolevulinic acid", "value": "partially rescued"}, {"measurement": "buildup of PPIX", "setting": "FECH", "value": "dose-dependent buildup of PPIX"}, {"measurement": "antiproliferative effects", "setting": "endothelial cells", "value": "selective antiproliferative effects on endothelial cells"}]}, {"compound": "COc1ccc(CC2COc3cc(OC)c(O)c(O)c3C2=O)cc1O", "note": "(single isomer, unassigned) [cremastranone isomer]", "values": [{"measurement": "decrease of binding of ferrochelatase to affinity reagent", "setting": "ferrochelatase", "value": 87, "unit": "%"}]}, {"compound": "N-methyl protoporphyrin [NMPP]", "values": [{"measurement": "proliferation of HRECs", "setting": "HRECs [2]", "value": "inhibited"}, {"measurement": "migration of HRECs", "setting": "HRECs [4]", "value": "inhibited"}, {"measurement": "tube formation ability of HRECs", "setting": "HRECs [6]", "value": "inhibited"}]}]}
